The nature of data set [1]: Concentration of drugs in whole blood of P. falciparum 3D7^0087/N9-infected HuMice after oral dosing (LC-MS/MS, PK analysis). Type of data set: in vivo, mice. To be noted: for AUC(0-t) / Cmax / Tmax / AUC0toTlast: mouse, in vivo; for AUC(0-t): AUC0toTlast. The method, then:
(§1) Before drug administration, each infected mouse was randomly assigned to its corresponding treatment. […] The treatments were administered by oral gavage with 20-gauge straight reusable feeding needles (Fine Science Tools GmbH, Heidelberg, Germany). The volume of administration for the per os (p.o.) route was 10 mL/kg of body weight unless otherwise stated.
The concentrations of drugs were measured in whole blood of P. falciparum 3D7^0087/N9-infected HuMice since the amount of plasma that could be obtained from each mouse was very low. Samples of peripheral blood (25 μL) were taken at different time points after dosing, mixed with 25 μL of 10.9 mM potassium oxalate and 59.5 mM sodium fluoride in Milli-Q water, and immediately frozen on a thermal block at −80°C. The frozen samples were stored at −80°C until analysis. Blood from P. falciparum 3D7^0087/N9-infected HuMice harboring a parasitemia of ~1.4% was used for preparation of standard curves, calibration, and quality control samples. The drugs were extracted from 10 μL of lysates, obtained by protein precipitation of blood samples, by using standard liquid-liquid extraction methods. The samples were analyzed by liquid chromatography-tandem mass spectrometry (LC-MS/MS) for quantification in Waters Micromass ultrahigh-performance triple quadrupole (UPLC-TQD) (Waters, Manchester, UK) mass spectrometers.
Multivariate linear regression, logistic regression, and descriptive statistics were carried out using GraphPad Prism 9.0 (GraphPad Software, San Diego, CA). The comparison of regression models was executed using the Akaike information criterion ([57]). Probability values of <0.05 were considered significant. Phoenix WinNonlin 8.2 (Certara, St. Louis, MO) was used for PK standard analysis.

Data set [2] has as its system P. falciparum 3D7^0087/N9. Briefly: PfalcHuMouse model: therapeutic efficacy (parasite clearance, day of recrudescence, cure) in P. falciparum-infected humanized NSG mice. It counts as in vivo, Plasmodium falciparum. To be noted: for day after which no recrudescence occurred (DoR): oral monotherapy, historical data, different dose levels and schedules, drugs with curative exposures in the data set; for exposure leading to 95% probability of cure: logistic regression of historical data.
Source text: To implement the PfalcHuMouse model for analysis of combinations, we first defined the variables of therapeutic response and their interpretation in the context of this analysis. These variables were parasite clearance (PC), parasite recrudescence (PR), and cure (Fig. 2a). […] In our studies, we estimated PC by measuring the ratio of parasitemia in blood at 48-h intervals (pDn/pDn+2, where pD stands for parasitemia and n indicates the day of the assay), which was a simplified alternative of the classical approach and is frequently used in clinical studies. Conversely, PR depends on the number of viable parasites remaining in the body that could proliferate after noneffective treatment and is not systematically used to measure parasite killing in vivo. To test PR validity, we hypothesized that the time point for recrudescent parasitemia to reach the value at the onset of drug treatment (i.e., day of recrudescence [DoR]) correlated with the number of parasites that survived antimalarial treatment ([35]). […] It is important to note that both DoRs, days 0 and 60, represented not quantifiable magnitudes but labels of specific conditions (i.e., therapeutic failure and cure, respectively).
Experimental infections were carried out as previously described ([12]), with minor modifications. Briefly, NSG mice were engrafted with hE by intraperitoneal daily injections of 1-mL hE suspensions until a minimum of 40% chimerism in peripheral blood was achieved (typically10 days of injections). The hE-engrafted mice (HuMice) were infected with 0.3 mL of a suspension of pooled blood collected by aseptic cardiac puncture from CO2-euthanized donor HuMice harboring a parasitemia of 5 to 10% P. falciparum 3D7^0087/N9.
as §1
The quantification of parasitemia at different time points after the infection was performed by flow cytometry as previously described ([46]). Briefly, 2 μL of blood was taken from the lateral tail vein of HuMice and stained with SYTO-16 (Fisher Scientific), a membrane-permeable nonselective fluorescent nucleic acid dye to detect intraerythrocytic parasites, and TER119-phycoerythrin monoclonal antibody (Miltenyi Biotec, Bergisch Gladbach, Germany) as a marker of murine erythrocytes, exactly as described. The samples were acquired and analyzed in a Attune NxT acoustic focusing flow cytometer (Thermo Fisher Scientific, Waltham, MA). The limit of quantification was set to 0.01%, where a minimum of 100 infected events was considered the minimal statistically significant sample (~10^6 total erythrocytes counted for detection). Parasitemia was expressed as the percentage of parasitized erythrocytes with respect to the total erythrocytes in circulation and/or as the absolute concentration of circulating parasitized erythrocytes. For qualitative assessment of blood samples from infected mice, blood smears stained with 10% (vol/vol) Giemsa in saline buffer (0.015 M NaCl, 0.001 M phosphate buffer [pH 7.0]) were prepared and analyzed as described previously ([56]) in a Zeiss Primo Star 4 microscope (Thermo Fisher Scientific) at a magnification of ×100.
The treated mice that reached the limit of detection by standard flow cytometry (<0.01% from total circulating erythrocytes) after pharmacological treatment were maintained until day 60 of study.

Data set [3] can be described thus: Blood partitioning: distribution of drugs in plasma, erythrocytes and infected erythrocytes of the PfalcHuMouse. To be noted: for fraction associated with circulating erythrocytes / fraction found in plasma: mouse, in vivo. Type of data set: in vivo, mice. From the text: Given their physicochemical properties, both ferroquine and piperaquine might accumulate in infected erythrocytes ([41]), so we mined data on the distribution of these drugs in plasma, erythrocytes, and infected erythrocytes of the PfalcHuMouse from previous blood partitioning studies in unrelated drug discovery programs. Approximately 97.5% of both ferroquine and piperaquine was associated with circulating erythrocytes, while only 2.5% was found in plasma. For piperaquine, the accumulation was even higher in erythrocytes of infected individuals (>99%). Moreover, as previously reported ([13]), there was no sequestration of P. falciparum in vascular endothelium of the PfalcHuMouse. Therefore, the contribution of drug accumulated in mature parasites circulating in blood might be relevant, especially in proliferating parasites exposed to noninhibitory concentrations. Consequently, we corrected this effect on drug exposure in blood by dividing the total drug exposure levels in blood by the number of infected erythrocytes in circulation for each animal in the study.

Setting [4] is: artefenomel plus piperaquine model, intercept 102.8, n = 40, Tjur's R^2 = 0.91.
The mark [5] stands for this setting: ferroquine plus artefenomel model, intercept 17.2, n = 50, Tjur's R^2 = 0.31.

Here are results for six molecules from PMC10269072, “Predicting Optimal Antimalarial Drug Combinations from a Standardized Plasmodium falciparum Humanized Mouse Model” (Antimicrobial Agents and Chemotherapy, 2023).

With `CNC[c-]1cccc1CNc1ccnc2cc(Cl)ccc12.[Fe+2].c1cc[cH-]c1` (stereo not shown) [SSR97213], the “share of the total exposure of ferroquine plus SSR97213” value in data set [1] (average, main metabolite of ferroquine) was 40%.
As a reminder, the AUC(0-t) is the area under the concentration-time curve up to a stated or last time point. The low end stands for low exposure, the high end for high exposure. The term Cmax denotes the peak of the concentration-time curve. Broadly, the Tmax is the time from dosing to the highest level. In the case of `c1cc([C@H]2CC[C@]3(CC2)OO[C@]2(O3)C3CC4CC(C3)CC2C4)ccc1OCCN1CCOCC1` [artefenomel], in data set [1] (po, 100 mg/kg), the AUC(0-t) was determined as 40900 ng·h/mL, the Cmax was found to be 2200 ng/mL and the Tmax was 2 h. Further, the “coefficient of log10AUC in logistic model of cure log(p/1−p)” value (“coefficient … of cure log(p/1−p)” for short) in data set [2] (setting [4]) is 16.2. Also, the “coefficient … of cure log(p/1−p)” value in data set [2] (setting [5]) was 1.6. Also, the “pattern of interaction with piperaquine on parasite killing in vivo” value in data set [2] (graphic analysis of cure, assuming potency of artefenomel in the same order of magnitude as piperaquine) was “synergistic”. For the same molecule, the “mechanistic pattern of interaction with ferroquine” value in data set [2] (graphic analysis of cure, conditioned by large difference in intrinsic potency) is on record as “additivity”. Besides, the “exposure up to which no cures were available in monotherapy” value in data set [2] (monotherapy, schedules of treatment used in the experimental studies) was “up to 4.7 × 10^−3 nmol/10^6 iE”.
For `CCCCN(CCCC)CC(O)c1cc(Cl)cc2c1-c1ccc(Cl)cc1/C2=C/c1ccc(Cl)cc1` (stereo not shown) [lumefantrine], the “day after which no recrudescence occurred (DoR)” value in data set [2] is ≤ 35 days.
In data set [1] (po, 5 mg/kg), `Clc1ccc2c(N3CCN(CCCN4CCN(c5ccnc6cc(Cl)ccc56)CC4)CC3)ccnc2c1` [piperaquine] registered an exposure AUC(0-t) of 25300 ng·h/mL and a Cmax of 598 ng/mL. In addition, in data set [1] (po, 10 mg/kg), the AUC(0-t) is 21800 ng·h/mL and the maximum concentration (Cmax) amounted to 346 ng/mL. For the same molecule, in data set [1] (po, 25 mg/kg), the AUC(0-t) is 41900 ng·h/mL, the Cmax turned out to be 414 ng/mL and the Tmax came out at 77 h. In data set [1] (po, 40 mg/kg), this molecule came in with an AUC0toTlast of 38866 ng·h/mL, an AUC(0-t) of 70000 ng·h/mL and a Cmax of 1120 ng/mL. For the same molecule, in data set [1] (po, 75 mg/kg), the AUC(0-t) turned out to be 355000 ng·h/mL, the peak level (Cmax) was 2550 ng/mL and the time of peak concentration (Tmax) was 109 h. Besides, the “coefficient … of cure log(p/1−p)” value in data set [2] (setting [4]) is 24.2. For the same molecule, the “exposure leading to 95% probability of cure” value in data set [2] (monotherapy) is recorded as 3.47 × 10^−3 nmol/10^6 infected erythrocytes (iE). Further, the “accumulation in erythrocytes of infected individuals” value in data set [3] (PfalcHuMouse, infected individuals) is reported as > 99%. Moreover, in data set [3], the “fraction associated with circulating erythrocytes” value is “Approximately 97.5%” and the “fraction found in plasma” value was 2.5%.
`COc1ccc2nc3cc(Cl)ccc3c(Nc3cc(CN4CCCC4)c(O)c(CN4CCCC4)c3)c2n1` [pyronaridine]: the “day after which no recrudescence occurred (DoR)” value in data set [2] is ≤ 35 days.
In turn, ferroquine gave an AUC0toTlast in data set [1] (20 mg/kg) of 4708 ng·h/mL. Further, the “coefficient … of cure log(p/1−p)” value in data set [2] (setting [5]) is 5.4. In data set [2] (monotherapy), the “exposure leading to 95% probability of cure” value was 0.58 × 10^−3 nmol/10^6 infected erythrocytes (iE). Besides, in data set [3], the “fraction associated with circulating erythrocytes” value is “Approximately 97.5%” and the “fraction found in plasma” value came out at 2.5%.
